Converted amounts (≈) assume the structure as drawn. Values belong to the compound of their own block, whether it stands above or below them. The source made the active and inactive calls. The rule behind the calls is not given here.
Tests used:
Cannabinoid receptor 1 [1] = target: T1, Cannabinoid receptor 1 (Homo sapiens, UniProt P21554); assay type: functional, cell-based, Sf9
Description: Antagonist activity at human CB1 receptor expressed in SF9 cells assessed as inhibition of CP-55940-stimulated GTPgammaS binding

physchem = conditions: aqueous, pH 7.4
Description: Aqueous solubility at pH 7.4

CYP3A4 = CYP3A4 (Homo sapiens, UniProt P08684); assay: in vitro; conditions: human liver microsomes, probe midazolam
Chain of CYP3A4 (P08684 whole entry): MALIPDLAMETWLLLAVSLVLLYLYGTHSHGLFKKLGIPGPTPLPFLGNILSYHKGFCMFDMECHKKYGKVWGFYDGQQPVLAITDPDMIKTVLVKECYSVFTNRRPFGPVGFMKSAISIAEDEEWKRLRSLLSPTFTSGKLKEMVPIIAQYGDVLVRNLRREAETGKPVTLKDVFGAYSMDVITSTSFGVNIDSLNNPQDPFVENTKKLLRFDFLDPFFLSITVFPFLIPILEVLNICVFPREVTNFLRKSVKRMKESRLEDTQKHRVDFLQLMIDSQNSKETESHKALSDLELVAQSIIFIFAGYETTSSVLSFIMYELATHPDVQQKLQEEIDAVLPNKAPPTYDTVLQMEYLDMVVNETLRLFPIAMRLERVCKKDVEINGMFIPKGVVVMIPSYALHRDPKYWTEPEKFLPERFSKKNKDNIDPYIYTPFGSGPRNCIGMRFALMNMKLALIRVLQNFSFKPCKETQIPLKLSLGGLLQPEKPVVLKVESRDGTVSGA

Cannabinoid receptor 1 [2] = target: T1, Cannabinoid receptor 1; assay type: functional, cell-based, Sf9; remark: listed apart in the source
Description: Inverse agonist at human CB1 receptor expressed in SF9 cells assessed as decrease in GTPgammaS level

Rattus norvegicus [3] = assay: Inhibition of food intake in overnight fed diet-induced obesity rat model at 10 mg/kg, po after 24 hrs relative to control; assay type: functional
Homo sapiens [4] = organism: Homo sapiens; assay: Selectivity for human CB1 receptor over human CB2 receptor
Cannabinoid receptor 1 [5] = target: Cannabinoid receptor 1 (Rattus norvegicus, UniProt P20272)
Chain of Cannabinoid receptor 1 (Rattus norvegicus, UniProt P20272) (P20272 whole entry): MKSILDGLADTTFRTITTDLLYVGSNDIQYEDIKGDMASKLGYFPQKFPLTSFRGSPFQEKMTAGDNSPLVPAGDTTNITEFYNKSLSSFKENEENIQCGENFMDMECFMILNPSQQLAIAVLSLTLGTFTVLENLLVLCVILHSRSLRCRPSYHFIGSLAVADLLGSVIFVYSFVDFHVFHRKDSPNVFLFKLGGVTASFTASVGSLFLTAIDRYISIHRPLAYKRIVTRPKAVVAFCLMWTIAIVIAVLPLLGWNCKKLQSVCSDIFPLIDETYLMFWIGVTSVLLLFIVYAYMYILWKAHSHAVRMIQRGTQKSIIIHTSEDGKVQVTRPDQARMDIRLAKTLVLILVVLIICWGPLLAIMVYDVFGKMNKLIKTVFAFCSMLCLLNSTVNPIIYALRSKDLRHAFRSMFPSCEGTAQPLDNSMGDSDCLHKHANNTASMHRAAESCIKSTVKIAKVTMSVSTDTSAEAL
Description: Antagonist activity at rat CB1 receptor in SF9 cells assessed as inhibition of CP-55940-stimulated GTPgammaS binding

Cannabinoid receptor 2 = Cannabinoid receptor 2 (Homo sapiens, UniProt P34972)
Chain of Cannabinoid receptor 2 (P34972 whole entry): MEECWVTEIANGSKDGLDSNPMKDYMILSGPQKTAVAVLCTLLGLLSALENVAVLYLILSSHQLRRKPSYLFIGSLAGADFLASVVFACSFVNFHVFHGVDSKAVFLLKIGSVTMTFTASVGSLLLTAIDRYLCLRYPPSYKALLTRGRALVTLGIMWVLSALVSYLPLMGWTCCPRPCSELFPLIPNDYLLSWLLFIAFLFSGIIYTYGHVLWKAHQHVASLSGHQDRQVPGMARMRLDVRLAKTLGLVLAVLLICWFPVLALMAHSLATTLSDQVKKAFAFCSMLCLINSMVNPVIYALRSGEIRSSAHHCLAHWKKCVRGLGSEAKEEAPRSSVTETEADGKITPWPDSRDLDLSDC
Description: Antagonist activity at human CB2 receptor in SF9 cells assessed as inhibition of CP-55940-stimulated GTPgammaS binding

Rattus norvegicus [6] = organism: Rattus norvegicus; assay: Decrease in blood insulin level in rat after 18 days; assay type: functional, organism-based
Rattus norvegicus [7] = assay: Ex vivo receptor occupancy by displacement of [3H]CP-55940 from rat CB1 receptor in po dosed rat cerebellum membrane after 3 hrs; assay type: functional, organism-based
Homo sapiens [8] = assay: Ex vivo receptor occupancy by displacement of [3H]CP-55940 from human CB1 receptor in […] after 3 hrs; assay type: functional; conditions: read-out: ID50 (the source's name)
Rattus norvegicus [9] = assay: Reduction in cumulative food intake in subchronic diet-induced rat at 5 mg/kg, po qd after 18 days relative to control; assay type: functional; parameters: scale not given: the % may be the effect or the level left
Rattus norvegicus [10] = assay: Reduction in body weight in subchronic diet-induced rat at 5 mg/kg, po qd after 18 days relative to control; assay type: functional; parameters: scale not given: the % may be the effect or the level left
[11] = Drug level at Tmax in rat plasma at 5 mg/kg, po qd after 19 days; assay type: ADME, organism-based; parameters: dose 5 mg/kg, route oral; conditions: read-out: Drug uptake
[12] = Drug level at Tmax in rat brain at 5 mg/kg, po qd after 19 days; assay type: ADME, organism-based; parameters: dose 5 mg/kg, route oral; conditions: read-out: Drug uptake
[13] = Drug level in rat plasma 5 mg/kg, po qd after 19 days measured 17 hrs after last dose; assay type: ADME, organism-based; parameters: dose 5 mg/kg, route oral; conditions: read-out: Drug uptake
[14] = Drug level in rat brain at 5 mg/kg, po qd after 19 days measured 17 hrs after last dose; assay type: ADME, organism-based; parameters: dose 5 mg/kg, route oral; conditions: read-out: Drug uptake
Rattus norvegicus [15] = organism: Rattus norvegicus; assay: Decrease in blood glucose level in rat after 18 days; assay type: functional, organism-based
Rattus norvegicus [16] = organism: Rattus norvegicus; assay: animal or person; conditions: po, 24 h, read-out: INH
Description: Inhibition of food intake in overnight fed diet-induced obesity rat model at 5 mg/kg, po after 24 hrs relative to control

Rattus norvegicus [17] = organism: Rattus norvegicus; assay: Decrease in blood leptin level in rat after 18 days; assay type: functional, organism-based
Rattus norvegicus [18] = assay: Reduction in cumulative food intake in subchronic diet-induced rat at 1 mg/kg, po qd after 18 days relative to control; assay type: functional; parameters: scale not given: the % may be the effect or the level left
Rattus norvegicus [19] = assay: Reduction in body weight in subchronic diet-induced rat at 1 mg/kg, po qd after 18 days relative to control; assay type: functional; parameters: scale not given: the % may be the effect or the level left
[20] = Drug level at Tmax in rat plasma at 1 mg/kg, po qd after 19 days; assay type: ADME, organism-based; parameters: dose 1 mg/kg, route oral; conditions: read-out: Drug uptake
[21] = Drug level at Tmax in rat brain at 1 mg/kg, po qd after 19 days; assay type: ADME, organism-based; parameters: dose 1 mg/kg, route oral; conditions: read-out: Drug uptake
[22] = Drug level in rat plasma 1 mg/kg, po qd after 19 days measured 17 hrs after last dose; assay type: ADME, organism-based; parameters: dose 1 mg/kg, route oral; conditions: read-out: Drug uptake
[23] = Drug level in rat brain at 1 mg/kg, po qd after 19 days measured 17 hrs after last dose; assay type: ADME, organism-based; parameters: dose 1 mg/kg, route oral; conditions: read-out: Drug uptake

T1 sequence (P21554 whole entry): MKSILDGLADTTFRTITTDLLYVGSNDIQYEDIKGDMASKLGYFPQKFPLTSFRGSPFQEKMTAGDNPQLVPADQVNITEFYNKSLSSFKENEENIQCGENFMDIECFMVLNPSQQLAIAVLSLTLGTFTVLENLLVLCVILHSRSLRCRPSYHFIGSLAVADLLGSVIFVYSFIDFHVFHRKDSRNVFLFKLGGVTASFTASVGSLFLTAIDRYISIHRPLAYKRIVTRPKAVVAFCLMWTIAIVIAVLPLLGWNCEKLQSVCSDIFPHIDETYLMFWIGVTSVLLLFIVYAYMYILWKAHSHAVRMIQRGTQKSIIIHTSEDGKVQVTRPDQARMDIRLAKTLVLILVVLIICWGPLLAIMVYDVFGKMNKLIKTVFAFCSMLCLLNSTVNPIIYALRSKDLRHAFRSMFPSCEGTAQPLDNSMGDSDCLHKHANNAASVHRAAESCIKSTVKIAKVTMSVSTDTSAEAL

Compound: CCNC1(C(N)=O)CCN(c2cnc(-c3ccc(Cl)cc3)c(-c3ccccc3Cl)n2)CC1
- Ki (Cannabinoid receptor 1 [1]): 1.66 nM
- solubility (physchem): 0.00125 mg/mL (≈ 2.66 µM)
- inhibition at 5 µM (CYP3A4): 9.7%

Compound: CCNC1(C(N)=O)CCN(c2cnc(-c3ccc(Cl)cc3)c(-c3ccc(C#N)cc3)n2)CC1
- Ki (Cannabinoid receptor 1 [1]): 32.3 nM
- solubility (physchem): 0.036 mg/mL (≈ 78.1 µM)

Compound: CCNC1(C(N)=O)CCN(c2cnc(-c3ccc(OCC)cc3)c(-c3ccccc3Cl)n2)CC1
- Ki (Cannabinoid receptor 1 [1]): 15 nM
- solubility (physchem): 0.0012 mg/mL (≈ 2.5 µM)
- inhibition at 5 µM (CYP3A4): 10%

Compound: CCNC1(C(N)=O)CN(c2cnc(-c3ccc(C(F)(F)F)cc3)c(-c3ccnc(Cl)c3)n2)C1
- Ki (Cannabinoid receptor 1 [1]): 1.2 nM
- IC50 (Cannabinoid receptor 1 [2]): 3.07 nM
- inhibition in vivo at 10 mg/kg (Rattus norvegicus [3]): 58%
- Ratio Ki (Homo sapiens [4]): > 2000
- Ki (Cannabinoid receptor 1 [5]): 2.06 nM
- Ki (Cannabinoid receptor 2): > 50000 nM
- solubility (physchem): 0.038 mg/mL (≈ 79.7 µM)
- inhibition at 5 µM (CYP3A4): < 5%

Compound: CCNC1(C(N)=O)CCN(c2cnc(-c3ccc(Cl)cc3)c(-c3ccc(Cl)cc3Cl)n2)CC1
- Ki (Cannabinoid receptor 1 [1]): 0.91 nM
- inhibition at 5 µM (CYP3A4): < 5%

Compound: CCNC1(C(N)=O)CCN(c2cnc(-c3ccc(Cl)cc3)c(-c3ccncc3)n2)CC1
- Ki (Cannabinoid receptor 1 [1]): 9.81 nM
- solubility (physchem): 0.0749 mg/mL (≈ 171 µM)
- inhibition at 5 µM (CYP3A4): 71%

Compound: CCNC1(C(N)=O)CCN(c2cnc(-c3ccc(OCC)cc3)c(-c3ccc(OCC)cc3)n2)CC1
- Ki (Cannabinoid receptor 1 [1]): 2.84 nM
- inhibition at 5 µM (CYP3A4): < 5%

Compound: CCNC1(C(N)=O)CCN(c2cnc(-c3ccc(F)cc3)c(-c3ccc(Cl)cc3Cl)n2)CC1
- Ki (Cannabinoid receptor 1 [1]): 1.75 nM
- inhibition at 5 µM (CYP3A4): 20.5%

Compound: Cc1c(C(=O)NN2CCCCC2)nn(-c2ccc(Cl)cc2Cl)c1-c1ccc(Cl)cc1 [RIMONABANT]
- Activity (Rattus norvegicus [6]): Active
- Ki (Rattus norvegicus [7]): 1.1 nM
- ED50 (Homo sapiens [8]): 0.5 mg/kg
- Activity (Rattus norvegicus [9]): 13.8%
- Activity (Rattus norvegicus [10]): 4.1%
- Cmax [11]: 0.346 µg/mL
- concentration at 456 h [12]: 0.318 µg/mL
- concentration at 17 h [13]: 0.003 µg/mL
- concentration at 17 h [14]: 0.065 µg/mL
- Activity (Rattus norvegicus [15]): Active
- solubility (physchem): 0.0003 mg/mL (≈ 0.647 µM)
- inhibition at 5 µM (CYP3A4): < 5%
- inhibition in vivo at 5 mg/kg (Rattus norvegicus [16]): 73%

More lines, in order of falling Ki (Cannabinoid receptor 1 [1]), values ahead:

- Ki (Cannabinoid receptor 1 [1]): 0.87 nM
- solubility (physchem): 0.0255 mg/mL (≈ 50.5 µM)
- inhibition at 5 µM (CYP3A4): < 5%
Compound: CCNC1(C(N)=O)CCN(c2cnc(-c3ccc(C(F)(F)F)cc3)c(-c3ccnc(Cl)c3)n2)CC1

- Ki (Cannabinoid receptor 1 [1]): 0.83 nM
- IC50 (Cannabinoid receptor 1 [2]): 4.2 nM
- Ratio Ki (Homo sapiens [4]): > 2000
- Ki (Cannabinoid receptor 1 [5]): 0.83 nM
- Ki (Cannabinoid receptor 2): 1900 nM
- solubility (physchem): 0.023 mg/mL (≈ 49.1 µM)
- inhibition at 5 µM (CYP3A4): < 5%
Compound: O=S1(=O)CCN(c2cnc(-c3ccc(C(F)(F)F)cc3)c(-c3ccncc3Cl)n2)CC1
- inhibition in vivo at 10 mg/kg (Rattus norvegicus [3]): 71%

- Ki (Cannabinoid receptor 1 [1]): 0.8 nM
- solubility (physchem): 0.024 mg/mL (≈ 49 µM)
- inhibition at 5 µM (CYP3A4): 11%
Compound: CCC(=O)NC1CCN(c2cnc(-c3ccc(C(F)(F)F)cc3)c(-c3ccncc3Cl)n2)CC1

- Ki (Cannabinoid receptor 1 [1]): 0.67 nM
- solubility (physchem): 0.0218 mg/mL (≈ 46.3 µM)
- inhibition at 5 µM (CYP3A4): 54%
Compound: CCNC1(C(N)=O)CCN(c2cnc(-c3ccc(Cl)cc3)c(-c3ccnc(Cl)c3)n2)CC1

- Ki (Cannabinoid receptor 1 [1]): 0.24 nM
- IC50 (Cannabinoid receptor 1 [2]): 0.54 nM
- Ki (Rattus norvegicus [7]): 4.4 nM
- Cmax [20]: 0.121 µg/mL
- concentration at 456 h [21]: 0.235 µg/mL
- Cmax [11]: 0.346 µg/mL
- concentration at 456 h [12]: 0.63 µg/mL
- concentration at 17 h [22]: 0.0442 µg/mL
- concentration at 17 h [23]: 0.11 µg/mL
- concentration at 17 h [13]: 0.142 µg/mL
- concentration at 17 h [14]: 0.253 µg/mL
- Ratio Ki (Homo sapiens [4]): > 2000
- Ki (Cannabinoid receptor 1 [5]): 0.41 nM
- Ki (Cannabinoid receptor 2): 4940 nM
- solubility (physchem): 0.0045 mg/mL (≈ 8.93 µM)
- inhibition at 5 µM (CYP3A4): < 5%
Compound: CC(C)C(=O)NC1CCN(c2cnc(-c3ccc(C(F)(F)F)cc3)c(-c3ccncc3Cl)n2)CC1
- Activity (Rattus norvegicus [17]): Dose-dependent effect
- Activity (Rattus norvegicus [6]): Active
- ED50 (Homo sapiens [8]): 0.3 mg/kg
- Activity (Rattus norvegicus [18]): 18.8%
- Activity (Rattus norvegicus [19]): 4.8%
- Activity (Rattus norvegicus [9]): 27.6%
- Activity (Rattus norvegicus [10]): 8.5%
- Activity (Rattus norvegicus [15]): Active
- inhibition in vivo at 5 mg/kg (Rattus norvegicus [16]): 80%

Source: ChEMBL document CHEMBL1150322, “Aminopyrazine CB1 receptor inverse agonists” (Bioorg Med Chem Lett, 2008)
